Measured values taken from PMC8701318, “LC-QTOF-MS/MS Based Molecular Networking Approach for the Isolation of α-Glucosidase Inhibitors and Virucidal Agents from Coccinia grandis (L.) Voigt” (Foods, 2021).

Experiments:
[1] = tested on: hepatitis C virus; design: method as in PMID 28638096; settings: cited from earlier work
[2] = tested on: influenza A virus H1N1; experiment: Virucidal activity, ASTM E1053-20 method; format: cell-based; settings: for Virucidal Activity Log Reduction: 10 min exposure
[3] = target: α-Glucosidase enzyme (Saccharomyces cerevisiae); experiment: In-vitro α-glucosidase inhibitory assay (p-NPG substrate); settings: read-out: α-Glucosidase Inhibitory Activity, IC50; mean ± s.d. of a triplicate experiment
Procedure: The α-glucosidase assay was performed as described by Liu et al. [21] with slight modification. The reaction mixture consisting of 50 µL of potassium phosphate buffer (PBS, 0.1 M, pH 6.8) and 20 µL of α-glucosidase (0.5 U/mL) was pre-incubated with 20 µL of the test sample at 37 °C for 15 min in a 96-well plate. The mixture was added 20 µL p-NPG (1 mM) and incubated again at 37 °C for 15 min. A total of 50 µL of Na2CO3 (0.2 M) was added to terminate the enzymatic activity. The absorbance value of each well was measured immediately using a microplate reader at 405 nm. […] All glycosides were dissolved in 50% DMSO, while a crude extract was dissolved in 100% DMSO. The experiment was performed in triplicate. The enzyme inhibition rate was calculated as follows:(1) [1−(ODsample−ODsample blank)/(ODcontrol−ODblank)] × 100 where ODsample represents the absorbance of PBS + enzyme + sample + p-NPG; ODsample blank represents the absorbance of PBS + sample; ODcontrol represents the absorbance of PBS + enzyme + solvent + p-NPG; ODblank represents the absorbance of PBS + solvent. The inhibitory activity is expressed as IC50 (half minimal inhibitory concentration) value. Data were normalized, and the IC50 values were calculated using GraphPad Prism 9.2.0.

[4] = tested on: α-glucosidase; design: method as in PMID 24125526; settings: isolated from leaves of Morus atropurpurea; cited from earlier work
[5] = Cytotoxicity in MDCK cells by the MTT assay; settings: dog
[6] = tested on: dengue virus serine protease; design: method as in PMID 32107969; settings: cited from earlier work
[7] = tested on: hippocampal neural progenitor cells; design: method as in PMID 19326568; settings: possibly via the 5-HT1A receptor; cited from earlier work
[8] = mice model; cited from earlier work
[9] = design: method as in earlier work; settings: isolated from cottonseeds; cited from earlier work

| SMILES | Virucidal Activity Log Reduction ([2]; 3.9 µg/mL) [Log] | Virucidal Activity Log Reduction ([2]; 7.8 µg/mL) [Log] | Virucidal Activity Log Reduction ([2]; 15.6 µg/mL) [Log] | Virucidal Activity Log Reduction ([2]; 31.3 µg/mL) [Log] | Virucidal Activity Log Reduction ([2]; 62.5 µg/mL) [Log] | Virucidal Activity Log Reduction ([2]; 125.0 µg/mL) [Log] | IC50 [3] [µM] | α-glucosidase inhibitory activity (in words) [4] | viability at 3.9 µg/mL [5] [%] | viability at 7.8 µg/mL [5] [%] | viability at 15.6 µg/mL [5] [%] | viability at 31.3 µg/mL [5] [%] | viability at 62.5 µg/mL [5] [%] | viability at 125 µg/mL [5] [%] | Virucidal Activity Log Reduction ([2]; 250.0 µg/mL) [Log] | Virucidal Activity Log Reduction ([2]; 500.0 µg/mL) [Log] | reduction of virus ([2]; 500.0 and 250.0 µg/mL) [%] | virucidal Log reduction ([2]; 500.0 and 250.0 µg/mL) | viability at 250 µg/mL [5] [%] | viability at 500 µg/mL [5] [%] | other results |
| --- | --- | --- | --- | --- | --- | --- | --- | --- | --- | --- | --- | --- | --- | --- | --- | --- | --- | --- | --- | --- | --- |
| C[C@@H]1O[C@@H](OC[C@H]2O[C@@H](Oc3c(-c4ccc(O)c(O)c4)oc4cc(O)cc(O)c4c3=O)[C@H](O)[C@@H](O)[C@@H]2O)[C@H](O)[C@H](O)[C@H]1O [Compound 1, rutin] | 1.20 ± 0.025 | 1.32 ± 0.032 | 1.34 ± 0.044 | 1.34 ± 0.030 | 1.52 ± 0.045 | 1.80 ± 0.105 | 243 ± 5.29 | α-glucosidase inhibitory activity | 99.3 ± 3.45 | 97.8 ± 0.31 | 94.7 ± 3.93 | 86.5 ± 2.16 | 83.8 ± 2.02 | 77.2 ± 1.28 |  |  |  |  |  |  | hepatitis C virus entry inhibition (in words) [1]: potent hepatitis C virus entry inhibitor |
| C[C@@H]1O[C@@H](OC[C@H]2O[C@@H](Oc3c(-c4ccc(O)cc4)oc4cc(O)cc(O)c4c3=O)[C@H](O)[C@@H](O)[C@@H]2O)[C@H](O)[C@H](O)[C@H]1O [Compound 2, kaempferol 3-O-rutinoside] | 1.66 ± 0.071 | 1.65 ± 0.084 | 1.66 ± 0.071 | 1.68 ± 0.046 | 1.82 ± 0.091 | 1.95 ± 0.124 | 236 ± 27.7 | α-glucosidase inhibitory activity | 98.1 ± 1.34 | 96.3 ± 5.13 | 92.3 ± 1.95 | 88.5 ± 2.67 | 86.5 ± 3.82 | 78 ± 1.75 |  |  |  |  |  |  | inhibition of dengue virus serine protease (in words) [6]: strong inhibition |
| C[C@@H]1O[C@@H](OC[C@H]2O[C@@H](Oc3c(-c4ccc(O)cc4)oc4cc(O)cc(O)c4c3=O)[C@H](O)[C@@H](O)[C@H]2O)[C@H](O)[C@H](O)[C@H]1O [Compound 3, kaempferol 3-O-alpha-L-rhamnopyranosyl-(1→6)-beta-D-galactopyranoside] | 1.63 ± 0.069 | 1.66 ± 0.071 | 1.91 ± 0.062 | 1.95 ± 0.124 | 1.91 ± 0.062 | 1.98 ± 0.088 | 195 ± 18.1 |  | 95.6 ± 6.25 | 92.8 ± 4.84 | 89.7 ± 0.82 | 88.7 ± 0.21 | 83.6 ± 0.74 | 73.3 ± 0.9 |  |  |  |  |  |  | reduction of virus ([2]; 31.3 and 15.6 µg/mL): 99%; virucidal Log reduction ([2]; 31.3 and 15.6 µg/mL): around 1.9 Log |
| C[C@@H]1O[C@@H](OC[C@H]2O[C@@H](Oc3c(-c4ccc(O)c(O)c4)oc4cc(O)cc(O)c4c3=O)[C@H](O[C@@H]3OCC(O)(CO)[C@H]3O)[C@@H](O)[C@@H]2O)[C@H](O)[C@H](O)[C@H]1O (stereo partly drawn) [Compound 5, quercetin 3-O-β-D-apiofuranosyl-(1→2)-[α-L-rhamnopyranosyl-(1→6)]-β-D-glucopyranoside] |  |  | 1.87 ± 0.072 | 1.84 ± 0.108 | 1.90 ± 0.062 | 1.97 ± 0.088 | 431 ± 17.6 |  |  |  | 95.8 ± 4.22 | 94.1 ± 1.85 | 90 ± 3.08 | 85.8 ± 2.87 | 2.01 ± 0.239 | 2.11 ± 0.198 | 99 | 1.93–2.41 Log | 83.7 ± 1.2 | 82.9 ± 2.06 | proliferation of hippocampal neural progenitor cells (in words) [7]: could enhance the proliferation; absorption and tissue distribution (in words) [8]: could be absorbed and distributed into tissues; antidepressant and cytoprotective effects (in words) [9]: antidepressant and cytoprotective effects |
| C[C@@H]1O[C@@H](OC[C@H]2O[C@@H](Oc3c(-c4ccc(O)cc4)oc4cc(O)cc(O)c4c3=O)[C@H](O[C@@H]3OCC(O)(CO)[C@H]3O)[C@@H](O)[C@@H]2O)[C@H](O)[C@H](O)[C@H]1O (stereo partly drawn) [Compound 6, kaempferol 3-O-β-D-apiofuranosyl-(1→2)-[α-L-rhamnopyranosyl-(1→6)]-β-D-glucopyranoside] |  |  | 1.93 ± 0.124 | 1.93 ± 0.124 | 1.93 ± 0.124 | 1.93 ± 0.124 | 456 ± 26 |  |  |  | 97 ± 2.99 | 95.7 ± 1.63 | 93.7 ± 4.87 | 89.5 ± 0.83 | 1.93 ± 0.124 | 1.97 ± 0.042 | 99 | 1.93–2.41 Log | 88.6 ± 0.43 | 86.4 ± 2.06 |  |
| C[C@@H]1O[C@@H](OC[C@H]2O[C@@H](Oc3c(-c4ccc(O)cc4)oc4cc(O)cc(O)c4c3=O)[C@H](O[C@@H]3OCC(O)(CO)[C@H]3O)[C@@H](O)[C@H]2O)[C@H](O)[C@H](O)[C@H]1O (stereo partly drawn) [Compound 7, kaempferol 3-O-β-D-apiofuranosyl-(1→2)-[α-L-rhamnopyranosyl-(1→6)]-β-D-galactopyranoside] |  |  |  |  |  |  | 432 ± 18.9 |  |  |  |  |  |  |  |  |  |  |  |  |  |  |
